Experimental data published in US7531622B2, “Synthesis and characterization of novel systems for guidance and vectorization of molecules of therapeutic interest towards target cells” (Centre National de la Recherche Scientifique- CNRS, priority 2002, dated 2009).
Non-standard residues stand in square brackets, D forms with d.

Test system: HEK293 cells that overexpress integrin β3
Assay: Internalization of fluorescein-labeled peptides, confocal microscopy with early endosome immunolabeling
Format: cell-based
Conditions: 37° C., 15 to 30 minutes
Method: 3) Active internalization of drugs or vectorized products: The same cells, placed in contact at 37° C. or 4° C. for 15 to 30 minutes with peptides previously labeled with fluorescein, are observed by confocal microscopy after immunolabeling of the early endosome vesicles (anti-Early Endosome 1A labeling, visualized in red).
If incubation of the peptides is performed at 4° C., only the extracellular label is observed with the peptide obtained according to the invention, confirming that internalization takes place by way of an active process.

cyclo(RGDfK) (cyclo(RGD[dF]K)) [cRGD]
visualization / detection of the peptide on and in cells by fluorescence: not detectable by immunofluorescence
internalization by endocytosis (co-localization with EE1A label) (fluorescein-labeled peptide): not triggered
